Target: human Cat S (Homo sapiens (Human), UniProt P25774)
Test: Cathepsin enzyme inhibition assay (fluorogenic peptide substrate)
Assay type: biochemical
Conditions: human Cat S, enzyme 1 nM, substrate Z-Val-Val-Arg-AMC, pH 6.5; read-out: CatS IC50
Experimental: Cathepsin Enzyme Inhibition Assay
Enzyme activity is measured by observing the increase in fluorescence intensity caused by cleavage of a peptide substrate containing a fluorophore whose emission is quenched in the intact peptide.
Assay buffer: 100 mM potassium phosphate pH 6.5, EDTA-Na 5 mM, Triton X-100 0.001%, DTT 5 mM.
Enzymes (all at 1 nM): human and mouse Cathepsin S, Cat K, Cat B, Cat L.
Substrate ([…], except for Cat K which uses Z-Leu-Arg-AMC (both from Bachem).
Excitation 360 nm, Emission 465 nm.
Enzyme is added to the substance dilutions in 96-well microtitre plates and the reaction is started with substrate. […] IC50 are calculated by standard methods.
Inhibition of human Cat S, mouse Cat S, human Cat K, mouse Cat K, human Cat B, mouse Cat B, human Cat L and mouse Cat L have been measured separately.

human Cat S, sequence (P25774 115-331): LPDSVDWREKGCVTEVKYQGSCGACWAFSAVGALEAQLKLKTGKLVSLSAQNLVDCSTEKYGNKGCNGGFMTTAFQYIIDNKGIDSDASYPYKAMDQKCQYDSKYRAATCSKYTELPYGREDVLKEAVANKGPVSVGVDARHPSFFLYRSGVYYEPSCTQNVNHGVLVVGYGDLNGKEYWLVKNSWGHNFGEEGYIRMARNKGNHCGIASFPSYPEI

Compound	IC50
CCCc1[nH]c(-c2ccc(C(F)(F)F)cc2)nc1CN1CCC(N2Cc3ccccc3NC2=O)CC1 [Example 62, 3-{1-[5-Propyl-2-(4-trifluoromethyl-phenyl)-1H-imidazol-4-ylmethyl]-piperidin-4-yl}-3,4-dihydro-1H-quinazolin-2-one]	300 nM
Cc1[nH]c(-c2ccc(C(F)(F)F)cc2)nc1CN1CCC(n2c(=O)[nH]c3ccc(N4CCCC4)cc32)CC1 [Example 9, 1-{1-[5-Methyl-2-(4-trifluoromethyl-phenyl)-1H-imidazol-4-ylmethyl]-piperidin-4-yl}-6-pyrrolidin-1-yl-1,3-dihydro-benzoimidazol-2-one]	190 nM
Cc1[nH]c(-c2ccc(C(F)(F)F)c(Cl)c2)nc1CN1CCC(c2c[nH]c3ncccc23)CC1 [Example 46, 3-{1-[2-(3-Chloro-4-trifluoromethyl-phenyl)-5-methyl-1H-imidazol-4-ylmethyl]-piperidin-4-yl}-1H-pyrrolo[2,3-b]pyridine]	305 nM
5-(4-Bromophenyl)-3-[1-[[2-[4-(trifluoromethyl)phenyl]-1H-imidazol-5-yl]methyl]-4-piperidyl]-1H-imidazol-2-one [Example 15]	4560 nM
Cc1[nH]c(-c2ccc(C(F)(F)F)cc2)nc1CN1CCC(n2c(=O)n(CC(=O)O)c3cc(Cl)ccc32)CC1 [Example 34, (6-Chloro-3-{1-[5-methyl-2-(4-trifluoromethyl-phenyl)-1H-imidazol-4-ylmethyl]-piperidin-4-yl}-2-oxo-2,3-dihydro-benzoimidazol-1-yl)-acetic acid]	930 nM
Cc1[nH]c(-c2ccc(Cl)c(Cl)c2)nc1CN1CCC(N2Cc3ccc(F)cc3NC2=O)CC1 [Example 48, 3-{1-[2-(3,4-Dichloro-phenyl)-5-methyl-1H-imidazol-4-ylmethyl]-piperidin-4-yl}-7-fluoro-3,4-dihydro-1H-quinazolin-2-one]	450 nM
Cc1[nH]c(-c2ccc(C(F)(F)F)cc2)nc1CN1CCC(c2c[nH]c3ncccc23)CC1 [Example 38, 3-{1-[5-Methyl-2-(4-trifluoromethyl-phenyl)-1H-imidazol-4-ylmethyl]-piperidin-4-yl}-1H-pyrrolo[2,3-b]pyridine]	470 nM
